The source of these data is PMC8213057, “Targeting ALK2: An Open Science Approach to Developing Therapeutics for the Treatment of Diffuse Intrinsic Pontine Glioma” (Journal of Medicinal Chemistry, 2020).

“And” between values parts separate entries of the source, which are not always exact repeats. Equal entries are not always repeated.

The target in one data set is T1, ALK2 (Homo sapiens, UniProt Q04771).
T1 construct: host or cells: HEK-293
T1 sequence (Q04771 21-509): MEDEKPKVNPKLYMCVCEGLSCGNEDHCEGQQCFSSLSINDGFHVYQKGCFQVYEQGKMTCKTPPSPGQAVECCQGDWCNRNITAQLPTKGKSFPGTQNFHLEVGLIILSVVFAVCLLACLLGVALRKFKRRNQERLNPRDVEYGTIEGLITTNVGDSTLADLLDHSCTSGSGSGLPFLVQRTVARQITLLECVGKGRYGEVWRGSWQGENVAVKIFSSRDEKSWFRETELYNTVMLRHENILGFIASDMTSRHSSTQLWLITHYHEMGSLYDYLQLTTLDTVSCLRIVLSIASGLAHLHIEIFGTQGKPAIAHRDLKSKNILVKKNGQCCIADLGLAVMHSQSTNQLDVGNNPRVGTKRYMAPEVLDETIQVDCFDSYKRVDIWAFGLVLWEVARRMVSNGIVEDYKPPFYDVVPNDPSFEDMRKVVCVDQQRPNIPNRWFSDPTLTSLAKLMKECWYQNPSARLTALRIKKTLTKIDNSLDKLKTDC
Put plainly: NanoBRET target engagement assay in HEK293 cells. The following applies: DLA ALK5 IC50 / NanoBRET ALK2 IC50. It is filed as cell-based. In general terms: BRET reads energy transfer from a luciferase to a nearby fluorophore.

A further data set deals with T2, ALK2/ACVR1 (Homo sapiens, UniProt Q04771).
T2 construct: purchased Reaction Biology Corporation
T2 sequence (Q04771 21-509): T1 sequence (Q04771 21-509)
It is filed as biochemical. The following applies: for Fold Selectivity (ALK5/ALK2): biochemical ALK5 IC50 / ALK2 IC50; for fold decrease in inhibitory activity against ALK2: biochemical, relative to M4K2149.

The test system of data set [1] is Caco-2 cells. Put plainly: Caco-2 permeability assay. The following applies: 5 μM. (In general: Caco-2 cells form a polarised layer with tight junctions and transporters.)
Data set [2] is described as follows: mouse liver microsomal stability assay. It is filed as in vitro ADME. The note with it: male, 60 min, 37 °C, read-out: MLM % Remaining at 1h. On the technique in general: Microsomes from liver hold many membrane-bound enzymes, among them those of drug oxidation.
A further data set is described as follows: in vivo. The note with it: female, CB17 SCID, mouse, po, 10 mg/kg.
Data set [3] is described as follows: human liver microsomal stability assay. It is filed as in vitro ADME. The note with it: pH 7.4, human liver microsomes, 60 min, 37 °C, read-out: HLM % Remaining at 1h.
A short description of data set [4]: Caco-2 permeability assay. The following applies: human.
A further data set is described as follows: in vitro. The following applies: human, Caco-2, pH 7.4.
For data set [5], the system named is Caco-2 cells. Also on record: method as in earlier work. The note with it: unpublished results ref 21; cited from earlier work.
A further data set deals with T3, hERG potassium channel (Homo sapiens, UniProt Q12809).
T3 construct: host or cells: HEK293
T3 sequence (Q12809 whole entry): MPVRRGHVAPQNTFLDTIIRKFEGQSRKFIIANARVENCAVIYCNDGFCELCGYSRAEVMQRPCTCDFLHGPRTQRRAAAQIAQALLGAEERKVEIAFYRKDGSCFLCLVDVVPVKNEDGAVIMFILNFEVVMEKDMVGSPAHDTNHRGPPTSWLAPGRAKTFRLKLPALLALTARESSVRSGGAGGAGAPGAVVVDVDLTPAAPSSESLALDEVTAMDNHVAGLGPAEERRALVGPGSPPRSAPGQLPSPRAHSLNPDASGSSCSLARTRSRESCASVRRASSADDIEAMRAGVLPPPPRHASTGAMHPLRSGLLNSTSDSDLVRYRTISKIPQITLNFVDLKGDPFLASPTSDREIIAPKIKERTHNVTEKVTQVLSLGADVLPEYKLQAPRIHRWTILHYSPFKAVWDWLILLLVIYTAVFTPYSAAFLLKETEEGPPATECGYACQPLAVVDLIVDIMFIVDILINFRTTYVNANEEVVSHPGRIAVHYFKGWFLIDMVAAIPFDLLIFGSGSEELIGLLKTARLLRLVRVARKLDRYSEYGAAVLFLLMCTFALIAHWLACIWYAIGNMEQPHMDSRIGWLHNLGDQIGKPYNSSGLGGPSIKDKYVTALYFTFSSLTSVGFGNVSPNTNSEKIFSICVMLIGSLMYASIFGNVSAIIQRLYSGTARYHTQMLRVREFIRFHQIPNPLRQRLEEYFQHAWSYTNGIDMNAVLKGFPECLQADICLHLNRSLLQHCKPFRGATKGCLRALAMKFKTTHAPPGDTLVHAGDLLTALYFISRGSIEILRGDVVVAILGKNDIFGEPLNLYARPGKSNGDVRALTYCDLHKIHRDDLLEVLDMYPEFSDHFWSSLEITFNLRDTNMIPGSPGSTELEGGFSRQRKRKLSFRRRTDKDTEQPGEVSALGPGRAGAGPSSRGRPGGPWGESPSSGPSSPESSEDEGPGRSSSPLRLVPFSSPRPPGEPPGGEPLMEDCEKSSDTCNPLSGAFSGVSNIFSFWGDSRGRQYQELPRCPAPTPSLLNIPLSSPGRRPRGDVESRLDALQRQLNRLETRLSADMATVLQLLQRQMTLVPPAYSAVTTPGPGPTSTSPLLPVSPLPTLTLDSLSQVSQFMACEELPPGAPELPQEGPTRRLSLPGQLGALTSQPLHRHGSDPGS
Description: hERG patch-clamp assay in HEK293 cells. The following applies: HEK293 cell-based patch-clamp.

[6] abbreviates: CD-1, mouse, microsomes, pH 7.4, mouse liver microsomes.
[7] abbreviates: CD-1, pH 7.4, mouse liver microsomes.

By IC50 is commonly meant the concentration at which inhibition is half-maximal. In the case of `CNC(=O)c1ccc(-c2cncc(-c3ccc(N4CCNCC4)cc3)c2C)cc1OC`, the IC50 is over 5 µM with NanoBRET ALK2, over 5 µM on ALK5, over 5 µM with DLA ALK5 and over 1 µM on ALK2 (WT).

With `COc1c(C(N)=O)csc1-c1cncc(-c2ccc(N3CCNCC3)cc2)c1C`, the half-maximal inhibitory concentration (IC50) in the data set on NanoBRET ALK2 was over 5 µM; on ALK5 it was over 5 µM; with DLA ALK5, over 5 µM; on ALK2 (WT) it was over 1 µM.

In the case of `COc1cc(-c2cncc(-c3ccc(N4CCNCC4)cc3)c2C)ccc1C(=O)N(C)C`, the IC50 with NanoBRET ALK2 was over 5 µM; on ALK5, over 5 µM; in the data set on DLA ALK5, over 5 µM; against ALK2 (WT), over 1 µM.

In the case of `COc1cc(-c2cncc(-c3ccc(N4CCNCC4)cc3)c2C)sc1C(N)=O` [Compound 7a, 3-Methoxy-5-(4-methyl-5-(4-(piperazin-1-yl)phenyl)pyridin-3-yl)thiophene-2-carboxamide], the 50% inhibitory concentration (IC50) against ALK5 was over 5 µM. For the same molecule, in the data set with DLA ALK5, the IC50 was over 5 µM. Moreover, at ALK2, the “Cell-based Fold Selectivity” value was over 1. Besides, on ALK2/ACVR1, the “Fold Selectivity (ALK5/ALK2)” value is over 6 and the “fold decrease in inhibitory activity against ALK2” value is “greater than 40 fold”.

With `COc1c(-c2cncc(-c3ccc(N4CCNCC4)cc3)c2C)csc1C(N)=O` [Compound 7b, 3-Methoxy-4-(4-methyl-5-(4-(piperazin-1-yl)phenyl)pyridin-3-yl)thiophene-2-carboxamide], the IC50 at ALK5 was over 5 µM. The IC50 in the data set with DLA ALK5 was over 5 µM. In addition, on ALK2, the “Cell-based Fold Selectivity” value is over 1. Also, at ALK2/ACVR1, the “Fold Selectivity (ALK5/ALK2)” value was over 7 and the “fold decrease in inhibitory activity against ALK2” value is “greater than 40 fold”.

By half-life is commonly meant the time needed for the level to fall by half in the phase considered. Take `COc1cc(-c2cncc(-c3ccc(N4CCNCC4)cc3)c2C)cc(F)c1C(N)=O` [Compound 8b, 2-Fluoro-6-methoxy-4-(4-methyl-5-(4-(piperazin-1-yl)phenyl)pyridin-3-yl)benzamide]: the Papp_AB in the data set with Caco-2 cells [1] (Caco-2, apical to basolateral) was 0.3 10^-6 cm/s. In the data set on Caco-2 cells [1] (Caco-2, basolateral to apical), the Papp_BA is reported as 10.7 10^-6 cm/s. The share remaining at 1 h, 1 μM in data set [2] (setting [6]) was 98.4%; in [3] (human, microsomes), 105%. Also, the half-life at 24 h in the data set “in vivo” was 1.31 h. Moreover, the “Fold Selectivity (ALK5/ALK2)” value at ALK2/ACVR1 is 80.

By Papp A→B is commonly meant how fast a substance crosses the layer from the apical side. High values mean fast passage, low ones slow passage. What is called Papp B→A is how fast a substance crosses the layer from the basolateral side. Molecule `COc1cc(-c2cncc(-c3ccc(N4CCNCC4)cc3)c2C)cc(OC)c1C(N)=O` [Compound 8c, 2,6-Dimethoxy-4-(4-methyl-5-(4-(piperazin-1-yl)phenyl)pyridin-3-yl)benzamide] came in with a Papp A→B at 120 min, 5 μM in [4] (Caco-2, pH 7.4) of 0.1 ×10⁻⁶ cm/s. In addition, in [4] (Caco-2, pH 7.4), the Papp B→A at 120 min, 5 μM was found to be 6.1 ×10⁻⁶ cm/s. Besides, the fraction remaining at 1 h, 1 μM was 99.8% in data set [2] (setting [7]) and 88.8% in data set [3] (pooled liver microsomes). Also, at ALK2/ACVR1, the “Fold Selectivity (ALK5/ALK2)” value is 9.

On to `COc1ccc(-c2cncc(-c3ccc(N4CCNCC4)cc3)c2C)cc1C(N)=O` [Compound 14a, 2-Methoxy-5-(4-methyl-5-(4-(piperazin-1-yl)phenyl)pyridin-3-yl)benzamide], for which the IC50 against ALK5 was over 5 µM; in the data set with DLA ALK5, over 5 µM; at ALK2 (WT), over 1 µM. For the same molecule, the “Cell-based Fold Selectivity” value at ALK2 was over 7.

Consider `COc1cc(C(N)=O)cc(-c2cncc(-c3ccc(N4CCNCC4)cc3)c2C)c1` [Compound 14b, 3-Methoxy-5-(4-methyl-5-(4-(piperazin-1-yl)phenyl)pyridin-3-yl)benzamide], for which the IC50 against ALK5 and with DLA ALK5 was over 5 µM in each case. Moreover, on ALK2, the “Cell-based Fold Selectivity” value is over 8. The “Fold Selectivity (ALK5/ALK2)” value on ALK2/ACVR1 is over 49.

For the molecule `Cc1c(-c2ccc(N3CCNCC3)cc2)cncc1-c1ccc2c(c1)CNC2=O` [Compound 20a, 5-(4-Methyl-5-(4-(piperazin-1-yl)phenyl)pyridin-3-yl)isoindolin-1-one], the IC50 on ALK5 is over 5 µM. Further, the “Fold Selectivity (ALK5/ALK2)” value at ALK2/ACVR1 is reported as over 7.

With `Cc1c(-c2ccc(C(N)=O)cc2)cncc1-c1ccc(N2CCNCC2)cc1` [Compound 20b, 4-(4-Methyl-5-(4-(piperazin-1-yl)phenyl)pyridin-3-yl)benzamide], the IC50 against ALK5 was over 5 µM. In the data set with DLA ALK5, the IC50 was over 5 µM. The “Cell-based Fold Selectivity” value at ALK2 is over 1. Also, at ALK2/ACVR1, the “Fold Selectivity (ALK5/ALK2)” value is over 10 and the “fold decrease in inhibitory activity against ALK2” value stood at 28 fold.

Take `COCc1cc(-c2cncc(-c3ccc(N4CCNCC4)cc3)c2C)ccc1C(N)=O` [Compound 20c, 2-(Methoxymethyl)-4-(4-methyl-5-(4-(piperazin-1-yl)phenyl)pyridin-3-yl)benzamide]: the IC50 against ALK5 and in the data set on DLA ALK5 was over 5 µM in each case. Moreover, the “Cell-based Fold Selectivity” value on ALK2 is given as over 1. For the same molecule, on ALK2/ACVR1, the “Fold Selectivity (ALK5/ALK2)” value is on record as over 7.

For `Cc1c(-c2ccc(N3CCNCC3)cc2)cncc1-c1ccc(C(N)=O)c(F)c1` [Compound 20d, 2-Fluoro-4-(4-methyl-5-(4-(piperazin-1-yl)phenyl)pyridin-3-yl)benzamide], the IC50 against ALK5 and in the data set on DLA ALK5 was over 5 µM throughout. Moreover, the “Cell-based Fold Selectivity” value on ALK2 is over 4. Also, the “Fold Selectivity (ALK5/ALK2)” value at ALK2/ACVR1 was over 19.

As for `COc1cc(-c2cncc(-c3ccc(N4CCNCC4)cc3)c2C)cc(Cl)c1C(N)=O` [Compound 20e, 2-Chloro-6-methoxy-4-(4-methyl-5-(4-(piperazin-1-yl)phenyl)pyridin-3-yl)benzamide], the half-maximal inhibitory concentration (IC50) on ALK2 (G328V) was under 0.002 µM; in the data set with DLA ALK5 it was over 5 µM. Besides, the “Cell-based Fold Selectivity” value on ALK2 is over 54.

For orientation: efflux ratio means the permeability from basolateral to apical divided by that in the opposite direction, in the common usage. For `COc1cc(-c2cncc(-c3ccc(N4CCN(C)CC4)cc3)c2C)cc(OC)c1C(N)=O` [Compound 26d, 2,6-Dimethoxy-4-(4-methyl-5-(4-(4-methylpiperazin-1-yl)phenyl)pyridin-3-yl)benzamide], the IC50 against ALK2 (R258G) is under 0.002 µM; at ALK2 (G328V), under 0.002 µM; against ALK2 (WT), under 0.003 µM. In [4] (Caco-2, pH 7.4), this molecule had a Papp A→B at 120 min, 5 μM of 0.7 ×10⁻⁶ cm/s. This molecule also had a Papp B→A at 120 min, 5 μM in [4] (Caco-2, pH 7.4) of 13.9 ×10⁻⁶ cm/s. Further, in data set [4] (Caco-2, pH 7.4), the efflux ratio at 120 min, 5 μM is over 10. The fraction remaining at 1 h, 1 μM stood at 85.2% in data set [2] (setting [7]) and 81.4% in data set [3] (pooled liver microsomes).

In turn, `COc1cc(-c2cncc(-c3ccc(N4CCN(C(C)C)CC4)cc3)c2C)cc(OC)c1C(N)=O` [Compound 26e, 4-(5-(4-(4-Isopropylpiperazin-1-yl)phenyl)-4-methylpyridin-3-yl)-2,6-dimethoxybenzamide] came in with a Papp A→B at 120 min, 5 μM in [4] (Caco-2, pH 7.4) of 0.9 ×10⁻⁶ cm/s. In data set [4] (Caco-2, pH 7.4), the Papp B→A at 120 min, 5 μM stood at 14.4 ×10⁻⁶ cm/s. Moreover, the efflux ratio at 120 min, 5 μM in [4] (Caco-2, pH 7.4, Efflux ratio, Caco-2, Papp (B-to-A)/Papp (A-to-B)) is over 10. Further, the amount remaining at 1 h, 1 μM was 99.5% in [2] (setting [7]) and 98% in data set [3] (pooled liver microsomes). For the same molecule, on ALK2/ACVR1, the “Fold Selectivity (ALK5/ALK2)” value came out at 13.

In the data set “in vitro”, `COc1cc(-c2cncc(-c3ccc(N4C[C@@H](C)N(C)[C@@H](C)C4)cc3)c2C)cc(OC)c1C(N)=O` [Compound 26f, 2,6-Dimethoxy-4-(4-methyl-5-(4-((3R,5S)-3,4,5-trimethylpiperazin-1-yl)phenyl)pyridin-3-yl)benzamide] had a Papp A→B of 0.7 ×10⁻⁶ cm/s and a Papp B→A of 12.6 ×10⁻⁶ cm/s. This molecule also had an IC50 in the data set with NanoBRET ALK2 of 0.021 µM. Further, the share remaining at 1 h, 1 μM in data set [2] (setting [6]) stood at 57.5%. Moreover, the fraction remaining at 1 h, 1 μM in [3] (human, microsomes) was 55.7%.

On to `COc1cc(-c2cncc(-c3ccc(N4CCNCC4)cc3)c2C)ccc1C(N)=O` [Compound M4K2149], for which the efflux ratio with Caco-2 cells [5] was 8.1. Further, the IC50 at hERG potassium channel is over 50 µM; in the data set on hERG, >50 µM and >30 µM.
